What was measured:
Type in all cases: in vivo
[1] = system: Heliothis virescens (tobacco budworm - larvae); assay: Residual test, tobacco budworm - larvae (HV), Cotton leaf; settings: 72 h, read-out: HV grading of mortality
Description: (§1) The activity of the Product was determined using a variety of insect pests. The Product was used in the form of liquid preparations containing from 100 to 500 parts per million (ppm) by weight of the Product. The preparations were made by dissolving the Product in acetone and diluting the solutions with water containing 0.1% by weight of a wetting agent sold under the trade name "SYNPERONIC" NX until the liquid preparations contained the required concentration of the Product. "SYNPERONIC" is a Registered Trade Mark.
(§2) The test procedure adopted with regard to each pest was basically the same and comprised supporting a number of the pests on a medium which was usually a host plant or a foodstuff on which the pests feed, and treating either or both the pests and the medium with the preparations. The mortality of the pests was then assessed at periods usually varying from one to seven days after the treatment.
(§3) The results of the tests are given in Table III for each of the Products, at the rate in parts per million given in the second column as a grading of mortality designated as A, B or C wherein A indicates 80-100% mortality or knockdown (70-100% for Meloidogyne incognita), B indicates 50-79% mortality knockdown or knockdown (50-69% for Meloidogyne incognita) and C indicates less than 50% mortality or knockdown.
(§4) In Table III the pest organism used is designated by a letter code and the pests species, the support medium or food, and the type and duration of test is given in Table II.
(tobacco budworm - larvae)

[2] = system: Spodoptera exigua (lesser army worm - larvae); assay: Residual test, lesser army worm - larvae (SP), Cotton leaf; settings: 72 h, 3 days, read-out: SP grading of mortality
Description: as §1, §2, §3, §4
(lesser army worm - larvae)

[3] = system: Blattella germanica (cockroach nymphs); assay: Residual test, cockroach nymphs (BG), Plastic pot; settings: 72 h, 3 days, read-out: BG grading of mortality
Description: as §1, with “Mark. The test procedure adopted with regard to each pest was basically the same and comprised supporting a number of the pests on a medium which was usually a host plant or a foodstuff on which the pests feed, and treating either or both the pests and the medium with the preparations. The mortality of the pests was then assessed at periods usually varying from one to seven days after the treatment.” for “Mark.”

Myzus persicae (aphids) = assay: Contact test, aphids (MP), Chinese Cabbage leaf; settings: 72 h, 3 days, read-out: MP grading of mortality
Description: The activity of the Product was determined using a variety of insect pests. The Product was used in the form of liquid preparations containing from 100 to 500 parts per million (ppm) by weight of the Product. The preparations were made by dissolving the Product in acetone and diluting the solutions with water containing 0.1% by weight of a wetting agent sold under the trade name "SYNPERONIC" NX until the liquid preparations contained the required concentration of the Product. "SYNPERONIC" is a Registered Trade Mark. The test procedure adopted with regard to each pest was basically the same and comprised supporting a number of the pests on a medium which was usually a host plant or a foodstuff on which the pests feed, and treating either or both the pests and the medium with the preparations. The mortality of the pests was then assessed at periods usually varying from one to seven days after the treatment. […] In Table III the pest organism used is designated by a letter code and the pests species, the support medium or food, and the type and duration of test is given in Table II.

[4] = system: Musca domestica (houseflies - adults); assay: Knockdown test, houseflies - adults (MD/KD), Cotton wool/sugar; settings: 4 hours, read-out: MD/KD grading of knockdown
Description: as §1, §2
In the case of the species Musca domestica (housefly), an additional assessment to determine the knockdown effect of the compounds was performed.
as §4

[5] = system: Musca domestica (houseflies - adults); assay: Contact test, houseflies - adults (MD), Cotton wool/sugar; settings: 24 h, 1 day, read-out: MD grading of mortality
Description: (§5) The activity of the Product was determined using a variety of insect pests. The Product was used in the form of liquid preparations containing from 100 to 500 parts per million (ppm) by weight of the Product. The preparations were made by dissolving the Product in acetone and diluting the solutions with water containing 0.1% by weight of a wetting agent sold under the trade name "SYNPERONIC" NX until the liquid preparations contained the required concentration of the Product. "SYNPERONIC" is a Registered Trade Mark. The test procedure adopted with regard to each pest was basically the same and comprised supporting a number of the pests on a medium which was usually a host plant or a foodstuff on which the pests feed, and treating either or both the pests and the medium with the preparations. The mortality of the pests was then assessed at periods usually varying from one to seven days after the treatment.

[6] = system: Tetranychus urticae (spider mites - adult); assay: Contact test, spider mites - adult (TUa), French bean leaf; settings: 72 h, 3 days, read-out: TUA grading of mortality
Description: as §5

[7] = system: Meloidogyne incognita (Tomato root knot eelworm - larvae); assay: Residual test, Tomato root knot eelworm - larvae (MI), Semi in-vitro; settings: 168 h, application rate is half that recorded, 7 days, read-out: MI grading of mortality; for mortality at 250 µg/mL: rate column 500 ppm
[8] = system: Tetranychus urticae (spider mites - ova); assay: Contact test, spider mites - ova (TUe), French bean leaf; settings: 144 h, 6 days, read-out: TUE grading of mortality
Description: as §5

[9] = system: Diabrotica balteata (rootworm larvae); assay: Residual test, rootworm larvae (DB), Filter paper/maize seed; settings: 72 h, 3 days, read-out: DB grading of mortality
Description: as §5

[10] = system: Nilaparvata lugens (brown plant hopper - nymphs); assay: Contact test, brown plant hopper - nymphs (NL), Rice plant; settings: 72 h, 3 days, read-out: NL grading of mortality
Description: as §5

COCc1ccc(C(=CCCc2cccc(Oc3ccccc3)c2)C(F)(F)F)cc1 [Compound 44, 1,1,1-Trifluoro-2-(4-methoxymethylphenyl)-5-(3-phenoxyphenyl)-pent-2-ene]
mortality at 500 ppm [1]: < 50%
mortality at 500 ppm [2]: 50 to 79%
mortality at 500 ppm [3]: < 50%
mortality at 500 ppm (Myzus persicae (aphids)): < 50%
pest or weed control at 500 ppm [4]: < 50%
mortality at 500 ppm [5]: < 50%
mortality at 500 ppm [6]: 80 to 100%
mortality at 250 µg/mL [7]: < 50%
mortality at 500 ppm [8]: < 50%
mortality at 500 ppm [9]: < 50%
mortality at 500 ppm [10]: < 50%

CCOc1ccc(C(CCCc2cccc(Oc3ccccc3)c2)C(F)(F)F)cc1F (racemic) [Compound 56, 1,1,1-Trifluoro-2-(3-fluoro-4-ethoxyphenyl)-5-(3-phenoxyphenyl)pentane]
mortality at 500 ppm [1]: 80 to 100%
mortality at 500 ppm [2]: 80 to 100%
mortality at 500 ppm [3]: 80 to 100%
mortality at 500 ppm (Myzus persicae (aphids)): 80 to 100%
pest or weed control at 500 ppm [4]: 80 to 100%
mortality at 500 ppm [5]: 80 to 100%
mortality at 500 ppm [6]: 80 to 100%
mortality at 250 µg/mL [7]: < 50%
mortality at 500 ppm [8]: 80 to 100%
mortality at 500 ppm [9]: 80 to 100%
mortality at 500 ppm [10]: 80 to 100%

FC(F)(F)C(CCCc1cccc(Oc2ccccc2)c1)c1ccc(OC(F)(F)C(F)(F)Br)cc1 (racemic) [Compound 68, 1,1,1-trifluoro-2-[4-(2-bromo-1,1,2,2-tetrafluoroethoxy)phenyl]-5-(3-phenoxyphenyl)-pentane]
mortality at 500 ppm [1]: < 50%
mortality at 500 ppm [2]: 50 to 79%
mortality at 500 ppm [3]: 80 to 100%
mortality at 500 ppm (Myzus persicae (aphids)): < 50%
pest or weed control at 500 ppm [4]: < 50%
mortality at 500 ppm [5]: < 50%
mortality at 500 ppm [6]: 80 to 100%
mortality at 250 µg/mL [7]: < 50%
mortality at 500 ppm [8]: 80 to 100%
mortality at 500 ppm [9]: 80 to 100%
mortality at 500 ppm [10]: 80 to 100%

FC(F)(F)C(=CCCc1cccc(Oc2ccccc2)c1)c1ccc2c(c1)OCO2 [Compound 41, 1,1,1-Trifluoro-2-(3,4-methylenedioxyphenyl)-5-(3-phenoxyphenyl)pent-2-ene]
mortality at 500 ppm [1]: 50 to 79%
mortality at 500 ppm [2]: 50 to 79%
mortality at 500 ppm [3]: < 50%
mortality at 500 ppm (Myzus persicae (aphids)): < 50%
pest or weed control at 500 ppm [4]: 80 to 100%
mortality at 500 ppm [5]: 80 to 100%
mortality at 500 ppm [6]: < 50%
mortality at 500 ppm [8]: < 50%
mortality at 500 ppm [9]: 80 to 100%
mortality at 500 ppm [10]: < 50%

Fc1ccc(C(CCCc2cccc(Oc3ccccc3)c2)C(F)(F)F)cc1 (racemic) [Compound 53, 1,1,1-Trifluoro-2-(4-fluorophenyl)-5-(3-phenoxyphenyl)pentane]
mortality at 250 ppm [1]: 80 to 100%
mortality at 250 ppm ([2]; 250 ppm): 80 to 100%
mortality at 250 ppm ([3]; 250 ppm): 80 to 100%
mortality at 250 ppm (Myzus persicae (aphids); 250 ppm): 80 to 100%
pest or weed control at 250 ppm ([4]; 250 ppm): < 50%
mortality at 250 ppm ([5]; 250 ppm): 80 to 100%
mortality at 250 ppm ([6]; 250 ppm): 80 to 100%
mortality at 125 µg/mL ([7]; rate 250 ppm): < 50%
mortality at 250 ppm ([8]; 250 ppm): < 50%
mortality at 250 ppm ([9]; 250 ppm): 80 to 100%
mortality at 250 ppm ([10]; 250 ppm): 80 to 100%

CCOc1ccc(C(=CC=Cc2ccc(F)c(Cc3ccccc3)c2)C(F)(F)F)cc1 [Compound 107, 1,1,1-Trifluoro-2-(4-ethoxyphenyl)-5-(4-fluoro-3-benzylphenyl)penta-2,4-diene]
mortality at 500 ppm [1]: < 50%
mortality at 500 ppm [2]: 80 to 100%
mortality at 500 ppm [3]: < 50%
mortality at 500 ppm (Myzus persicae (aphids)): 80 to 100%
pest or weed control at 500 ppm [4]: < 50%
mortality at 500 ppm [5]: < 50%
mortality at 500 ppm [6]: < 50%
mortality at 500 ppm [8]: < 50%
mortality at 500 ppm [9]: 80 to 100%
mortality at 500 ppm [10]: 50 to 79%

CCOc1ccc(C(CCCc2cccc(Oc3ccccc3)n2)C(F)(F)F)cc1 (stereo not shown) [Compound 98]
mortality at 500 ppm [1]: 80 to 100%
mortality at 500 ppm [2]: 80 to 100%
mortality at 500 ppm [3]: 80 to 100%
mortality at 500 ppm (Myzus persicae (aphids)): 80 to 100%
pest or weed control at 500 ppm [4]: 80 to 100%
mortality at 500 ppm [5]: 80 to 100%
mortality at 500 ppm [6]: 80 to 100%
mortality at 500 ppm [8]: < 50%
mortality at 500 ppm [9]: 80 to 100%
mortality at 500 ppm [10]: < 50%

FC(F)(F)C(CCCc1cccc(Oc2ccccc2)c1)c1ccc2c(c1)OCO2 (stereo not shown) [Compound 40, 1,1,1-Trifluoro-2-(3,4-methylenedioxy)phenyl-5-(3-phenoxyphenyl)pentane]
mortality at 500 ppm [1]: 80 to 100%
mortality at 500 ppm [2]: 80 to 100%
mortality at 500 ppm [3]: 50 to 79%
mortality at 500 ppm (Myzus persicae (aphids)): 80 to 100%
pest or weed control at 500 ppm [4]: 80 to 100%
mortality at 500 ppm [5]: 80 to 100%
mortality at 500 ppm [6]: < 50%
mortality at 500 ppm [8]: < 50%
mortality at 500 ppm [9]: 80 to 100%
mortality at 500 ppm [10]: < 50%

FC(F)C(CCCc1cccc(Oc2ccccc2)c1)c1ccc(OC(F)(F)F)cc1 (racemic) [Compound 83, 1,1-Difluoro-2-(4-trifluoromethoxyphenyl)-5-(3-phenoxyphenyl)pentane]
mortality at 500 ppm [1]: 80 to 100%
mortality at 500 ppm [2]: 80 to 100%
mortality at 500 ppm [3]: 80 to 100%
mortality at 500 ppm (Myzus persicae (aphids)): 80 to 100%
pest or weed control at 500 ppm [4]: 80 to 100%
mortality at 500 ppm [5]: 80 to 100%
mortality at 500 ppm [6]: 80 to 100%
mortality at 500 ppm [8]: 80 to 100%
mortality at 500 ppm [9]: 80 to 100%
mortality at 500 ppm [10]: 80 to 100%

CCOc1ccc(C(CCCc2ccc(F)c(Cc3ccccc3)c2)C(F)(F)F)cc1 (racemic) [Compound 106, 1,1,1-Trifluoro-2-(4-ethoxyphenyl)-5-(3-benzyl-4-fluorophenyl)pentane]
mortality at 500 ppm [1]: 80 to 100%
mortality at 500 ppm [2]: 80 to 100%
mortality at 500 ppm [3]: 80 to 100%
mortality at 500 ppm (Myzus persicae (aphids)): 80 to 100%
pest or weed control at 500 ppm [4]: 80 to 100%
mortality at 500 ppm [5]: 80 to 100%
mortality at 500 ppm [6]: 80 to 100%
mortality at 500 ppm [8]: 80 to 100%
mortality at 500 ppm [9]: 80 to 100%
mortality at 500 ppm [10]: 80 to 100%

Fc1ccc(C=CC=C(c2ccc(OC(F)(F)F)cc2)C(F)(F)F)cc1Cc1ccccc1 [Compound 105, 1,1,1-Trifluoro-2-(4-trifluoromethoxyphenyl)-5-(4-fluoro-3-benzylphenyl)penta-2,4-diene]
mortality at 500 ppm [1]: < 50%
mortality at 500 ppm [2]: 80 to 100%
mortality at 500 ppm [3]: 80 to 100%
mortality at 500 ppm (Myzus persicae (aphids)): 80 to 100%
pest or weed control at 500 ppm [4]: < 50%
mortality at 500 ppm [5]: < 50%
mortality at 500 ppm [6]: 80 to 100%
mortality at 500 ppm [8]: 80 to 100%
mortality at 500 ppm [9]: 80 to 100%
mortality at 500 ppm [10]: 80 to 100%

Fc1ccc(CCCC(c2ccc(OC(F)(F)F)cc2)C(F)(F)F)cc1Cc1ccccc1 (stereo not shown) [Compound 108]
mortality at 500 ppm [1]: 80 to 100%
mortality at 500 ppm [2]: 80 to 100%
mortality at 500 ppm [3]: 80 to 100%
mortality at 500 ppm (Myzus persicae (aphids)): 80 to 100%
pest or weed control at 500 ppm [4]: 80 to 100%
mortality at 500 ppm [5]: 80 to 100%
mortality at 500 ppm [6]: 80 to 100%
mortality at 500 ppm [8]: 80 to 100%
mortality at 500 ppm [9]: < 50%
mortality at 500 ppm [10]: 80 to 100%

— patent US4791139A, “Diphenyl ether derivatives and their use as insecticides” (Imperial Chemical Industries PLC, priority 1986, dated 1988)
